Assay results taken from PubChem BioAssay AID1963840 (Molecular Pharmacology Branch, DTP, NCI, 2024).

Tested on: 695427-040-R-J1-PDC complex spheroid viability
Test: Anticancer human tumor 695427-040-R-J1-PDC patient-derived colon adenocarcinoma cell line growth inhibition [POLQ]
Conditions: for IC50: curve of first compound; for viability, T/C: stronger effect = lower value; active = viability on the fitted dose curve at most 10% of control; inactive = the rest
Description: Multicellular complex tumor spheroid response to Polymerase (POL) inhibitors (novobiocin, ART-558, RP6685) in combination with a variety of drugs and investigational agents in selected tumor cell lines
The POL inhibitors (novobiocin, ART-558, and RP6685) were evaluated both individually and in combination with standard of care and investigational anticancer small molecules within a complex spheroid model of solid tumors. . Complex spheroids include a stromal component modeled by human endothelial cells (HUVEC) and fibroblasts modeled by human mesenchymal stem cells (MSCs). The concentration ranges selected for each drug and investigational agent were based upon clinically achievable concentrations if the clinical Cmax of the agent was known.
Compounds. The drugs and investigational agents: novobiocin (NSC847541), ART-558 (NSC835418), RP-6685 (NSC848927), peposertib (NSC802822), ceralasertib (NSC780249), elimusertib (NSC800525), camonsertib (NSC841442), AZD-1390 (NSC803789), olaparib (NSC753686), talazoparib (NSC767125), rucaparib (NSC756644), sotorasib (NSC818433), MRTX-1133 (NSC836407), SN-38 (NSC673596), topotecan (NSC609699), epotoside (NSC141540), doxorubicin (NSC123127), gemcitabine (NSC613327), 5-fluorouracil (NSC19893), paclitaxel (NSC125973), vemurafenib (NSC761431), MSA-2 (NSC828583), SN-011 (NSC837082), adavosertib (NSC754352), prexasertib (NSC758257), carboplatin (NSC241240) and oxaliplatin (NSC266046), were obtained from the National Cancer Institute (NCI) Developmental Therapeutics Program Chemical Repository (21). The FDA-approved anticancer drug set is available from the Developmental Therapeutics Program at https://dtp.cancer.gov/organization/dscb/obtaining/. […] The stock solutions were prepared in dimethyl sulfoxide (DMSO, Sigma-Aldrich, St. Louis, MO, cat. D2650), except for the platinum compounds which were prepared in saline (Quality Biological, Gaithersburg, MD, cat. 114-055-101), at 800-fold the tested concentration and stored at -70 degrees C prior to their use. All drugs and investigational agents were tested over a range starting from a high concentration at or near the clinical Cmax and decreasing in half-log increments. If the clinical Cmax for an agent had not been determined, the highest concentration tested was 10 microM, except for SN-38, which was tested at a high concentration of 1 microM.
Cell Culture. All cells were maintained in an incubator at 37 degrees C and 5% CO2 with 95% humidity. The PDC lines were cultured according to standard operating procedures established by the NCI PDMR (https://pdmr.cancer.gov). Table 3 of the manuscript, lists the cell lines along with the number of the three cell types plated to form the mct-spheroids and media for tumor cell growth. After thawing, all PDC lines, except 997537-175-T-J1-PDC and 415267-285-R-J2-PDC, were cultured in Matrigel-coated flasks prepared with a working solution of 1X Ham's F-12 nutrient mix, without supplementation (Thermo Fisher Scientific, cat. 11765054), 100 U/mL penicillin-streptomycin (Thermo Fisher Scientific, cat. 15140122), and 2.5% Matrigel (Corning Inc., Corning, NY, cat. 354248) for the first three passages. The two PDC lines 997537-175-T-J1-PDC and 415267-285-R-J2-PDC were cultured on uncoated flasks. The 857933-349-R-J2-PDC line was cultured in 6C/Colon 1B media containing advanced DMEM/F-12 (Thermo Fisher Scientific, cat. 12634028), 10 mM HEPES (Thermo Fisher Scientific, cat. 15630080), 1X GlutaMAX supplement (Thermo Fisher Scientific, cat. 35050061), 0.1 mg/mL primocin (InvivoGen, San Diego, CA, cat. ant-pm-2), 10% defined fetal bovine serum, heat inactivated (HyClone Laboratories Inc., Logan, UT, cat. SH30070.03HI), 50% L-WRN conditioned media (ATCC, cat. CRL-3276), 1.25 mM N-Acetyl-L-cysteine (Sigma-Aldrich, cat. A9165), 10 mM nicotinamide (Sigma-Aldrich, cat. N0636), 1X B-27 supplement (Thermo Fisher Scientific, cat. 17504044), 1X N-2 supplement (Thermo Fisher Scientific, cat. […]
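Note: spheroids exposed to compounds for seven days.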

Cn1ncnc1[C@H]1c2n[nH]c(=O)c3cc(F)cc(c23)N[C@@H]1c1ccc(F)cc1 + Cc1cccc(N(C)C(=O)C2C(O)CCN2c2nc(C)cc(C(F)(F)F)c2C#N)c1
inactive: viability, T/C (second compound 0.0316 µM, first compound 0.000316 µM) 99.1% | viability, T/C (second compound 0.0316 µM, first compound 0.001 µM) 97.2% | viability, T/C (second compound 0.0316 µM, first compound 0.00316 µM) 102% | viability, T/C (second compound 0.0316 µM, first compound 0.01 µM) 99% | viability, T/C (second compound 0.0316 µM, first compound 0.0316 µM) 99.4% | viability, T/C (second compound 0.0316 µM, first compound 0.1 µM) 96.8% | viability, T/C (second compound 0.1 µM, first compound 0.000316 µM) 108% | viability, T/C (second compound 0.1 µM, first compound 0.001 µM) 91.2% | viability, T/C (second compound 0.1 µM, first compound 0.00316 µM) 98.8% | viability, T/C (second compound 0.1 µM, first compound 0.01 µM) 102% | viability, T/C (second compound 0.1 µM, first compound 0.0316 µM) 102% | viability, T/C (second compound 0.1 µM, first compound 0.1 µM) 96.7% | viability, T/C (second compound 0.316 µM, first compound 0.000316 µM) 102% | viability, T/C (second compound 0.316 µM, first compound 0.001 µM) 102% | viability, T/C (second compound 0.316 µM, first compound 0.00316 µM) 96.6% | viability, T/C (second compound 0.316 µM, first compound 0.01 µM) 105% | viability, T/C (second compound 0.316 µM, first compound 0.0316 µM) 107% | viability, T/C (second compound 0.316 µM, first compound 0.1 µM) 94.7% | viability, T/C (second compound 1 µM, first compound 0.000316 µM) 99.2% | viability, T/C (second compound 1 µM, first compound 0.001 µM) 98.3% | viability, T/C (second compound 1 µM, first compound 0.00316 µM) 89.5% | viability, T/C (second compound 1 µM, first compound 0.01 µM) 93.2% | viability, T/C (second compound 1 µM, first compound 0.0316 µM) 99.3% | viability, T/C (second compound 1 µM, first compound 0.1 µM) 94.6% | viability, T/C (second compound 3.16 µM, first compound 0.000316 µM) 88.9% | viability, T/C (second compound 3.16 µM, first compound 0.001 µM) 101% | viability, T/C (second compound 3.16 µM, first compound 0.00316 µM) 92.5% | viability, T/C (second compound 3.16 µM, first compound 0.01 µM) 101% | viability, T/C (second compound 3.16 µM, first compound 0.0316 µM) 102% | viability, T/C (second compound 3.16 µM, first compound 0.1 µM) 88.8% | viability, T/C (second compound 10 µM, first compound 0.000316 µM) 89.2% | viability, T/C (second compound 10 µM, first compound 0.001 µM) 87.4% | viability, T/C (second compound 10 µM, first compound 0.00316 µM) 87.8% | viability, T/C (second compound 10 µM, first compound 0.01 µM) 88.6% | viability, T/C (second compound 10 µM, first compound 0.0316 µM) 93.3% | viability, T/C (second compound 10 µM, first compound 0.1 µM) 90.4%
> 100 nM: IC50 (second compound 0.0316 µM) | IC50 (second compound 0.1 µM) | IC50 (second compound 0.316 µM) | IC50 (second compound 1 µM) | IC50 (second compound 3.16 µM) | IC50 (second compound 10 µM)
